Experiments:
Type in all cases: cell-based
human TLR8 = human TLR8 (Homo sapiens (Human), UniProt Q9NR97); test: TLR8 inhibition reporter assay (HEK-Blue, SEAP); conditions: HEK-Blue cells overexpressing human TLR8, R848 15.9 μM stimulation
How it was run: (§1)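 SEAP read-out via detection medium after 22 h at 37 °C, 5% CO2; percent inhibition relative to agonist-plus-DMSO and known-inhibitor wells. Agonists: TLR7 gardiquimod 7.5 μM, TLR8 R848 15.9 μM, TLR9 ODN2006 5 nM (final). Compound range 0.05 nM–50 μM, 30 min pre-treatment.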

human TLR9 = human TLR9 (Homo sapiens (Human), UniProt Q9NR96); test: TLR9 inhibition reporter assay (HEK-Blue, SEAP); conditions: HEK-Blue cells overexpressing human TLR9, ODN2006 5 nM stimulation
Sequence of human TLR9 (Q9NR96 26-1032): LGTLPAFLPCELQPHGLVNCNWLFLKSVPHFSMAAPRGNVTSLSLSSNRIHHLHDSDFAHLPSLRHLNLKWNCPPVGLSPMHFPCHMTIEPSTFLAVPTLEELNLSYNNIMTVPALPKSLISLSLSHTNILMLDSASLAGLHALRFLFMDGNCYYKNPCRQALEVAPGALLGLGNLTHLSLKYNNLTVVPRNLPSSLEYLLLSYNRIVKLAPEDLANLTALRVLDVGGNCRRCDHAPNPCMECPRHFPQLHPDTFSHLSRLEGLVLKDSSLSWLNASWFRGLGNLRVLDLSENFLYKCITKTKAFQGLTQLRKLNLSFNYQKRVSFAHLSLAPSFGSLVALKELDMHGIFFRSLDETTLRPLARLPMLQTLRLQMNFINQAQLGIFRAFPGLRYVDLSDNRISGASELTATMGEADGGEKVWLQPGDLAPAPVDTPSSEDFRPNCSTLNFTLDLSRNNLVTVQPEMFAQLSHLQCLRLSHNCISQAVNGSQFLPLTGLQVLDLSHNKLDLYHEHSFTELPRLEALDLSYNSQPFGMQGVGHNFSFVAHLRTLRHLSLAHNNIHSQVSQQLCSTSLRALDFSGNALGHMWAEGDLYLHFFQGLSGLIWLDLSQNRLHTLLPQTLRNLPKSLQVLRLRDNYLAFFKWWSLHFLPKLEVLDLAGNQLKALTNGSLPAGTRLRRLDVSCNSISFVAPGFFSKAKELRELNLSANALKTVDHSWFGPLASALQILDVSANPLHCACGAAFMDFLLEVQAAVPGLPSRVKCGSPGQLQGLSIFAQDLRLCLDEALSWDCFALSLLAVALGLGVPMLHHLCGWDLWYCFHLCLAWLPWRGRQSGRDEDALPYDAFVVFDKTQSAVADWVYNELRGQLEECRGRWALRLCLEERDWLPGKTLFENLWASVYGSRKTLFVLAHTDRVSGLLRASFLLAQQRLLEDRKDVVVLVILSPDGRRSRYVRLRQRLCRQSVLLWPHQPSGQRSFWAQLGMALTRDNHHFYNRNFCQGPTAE
How it was run: as §1

human TLR7 = human TLR7 (Homo sapiens (Human), UniProt Q9NYK1); test: TLR7 inhibition reporter assay (HEK-Blue, SEAP); conditions: HEK-Blue cells overexpressing human TLR7, gardiquimod 7.5 μM stimulation
Sequence of human TLR7 (Q9NYK1 27-1049): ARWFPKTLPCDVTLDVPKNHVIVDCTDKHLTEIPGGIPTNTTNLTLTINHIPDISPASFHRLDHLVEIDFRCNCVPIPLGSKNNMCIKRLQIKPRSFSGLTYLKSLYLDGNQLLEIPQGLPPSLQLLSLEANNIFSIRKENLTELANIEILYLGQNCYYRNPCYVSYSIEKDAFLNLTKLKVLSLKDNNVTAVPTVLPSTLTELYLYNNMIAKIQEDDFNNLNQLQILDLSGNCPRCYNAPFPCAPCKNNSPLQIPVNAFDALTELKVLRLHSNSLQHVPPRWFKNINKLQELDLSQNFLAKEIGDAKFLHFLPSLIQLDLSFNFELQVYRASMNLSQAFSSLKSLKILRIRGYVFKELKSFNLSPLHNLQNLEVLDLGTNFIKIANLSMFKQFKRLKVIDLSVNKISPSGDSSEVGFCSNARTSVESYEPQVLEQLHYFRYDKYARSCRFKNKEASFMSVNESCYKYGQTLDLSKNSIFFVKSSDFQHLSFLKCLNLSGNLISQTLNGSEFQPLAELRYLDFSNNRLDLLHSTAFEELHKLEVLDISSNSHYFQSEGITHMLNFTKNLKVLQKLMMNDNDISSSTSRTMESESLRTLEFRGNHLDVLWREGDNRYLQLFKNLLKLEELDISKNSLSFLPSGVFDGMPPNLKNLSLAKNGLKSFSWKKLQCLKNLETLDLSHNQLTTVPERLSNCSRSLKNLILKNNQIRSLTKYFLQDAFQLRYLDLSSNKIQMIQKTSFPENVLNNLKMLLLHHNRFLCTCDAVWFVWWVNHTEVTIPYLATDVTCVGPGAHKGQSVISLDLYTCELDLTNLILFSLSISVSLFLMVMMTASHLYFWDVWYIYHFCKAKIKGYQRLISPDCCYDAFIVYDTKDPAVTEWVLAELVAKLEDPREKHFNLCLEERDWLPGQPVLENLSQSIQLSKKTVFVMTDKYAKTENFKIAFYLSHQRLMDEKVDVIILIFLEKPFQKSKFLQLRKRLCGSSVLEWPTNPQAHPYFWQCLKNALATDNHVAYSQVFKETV
How it was run: as §1

Sequence of human TLR8 (Q9NR97 27-1041): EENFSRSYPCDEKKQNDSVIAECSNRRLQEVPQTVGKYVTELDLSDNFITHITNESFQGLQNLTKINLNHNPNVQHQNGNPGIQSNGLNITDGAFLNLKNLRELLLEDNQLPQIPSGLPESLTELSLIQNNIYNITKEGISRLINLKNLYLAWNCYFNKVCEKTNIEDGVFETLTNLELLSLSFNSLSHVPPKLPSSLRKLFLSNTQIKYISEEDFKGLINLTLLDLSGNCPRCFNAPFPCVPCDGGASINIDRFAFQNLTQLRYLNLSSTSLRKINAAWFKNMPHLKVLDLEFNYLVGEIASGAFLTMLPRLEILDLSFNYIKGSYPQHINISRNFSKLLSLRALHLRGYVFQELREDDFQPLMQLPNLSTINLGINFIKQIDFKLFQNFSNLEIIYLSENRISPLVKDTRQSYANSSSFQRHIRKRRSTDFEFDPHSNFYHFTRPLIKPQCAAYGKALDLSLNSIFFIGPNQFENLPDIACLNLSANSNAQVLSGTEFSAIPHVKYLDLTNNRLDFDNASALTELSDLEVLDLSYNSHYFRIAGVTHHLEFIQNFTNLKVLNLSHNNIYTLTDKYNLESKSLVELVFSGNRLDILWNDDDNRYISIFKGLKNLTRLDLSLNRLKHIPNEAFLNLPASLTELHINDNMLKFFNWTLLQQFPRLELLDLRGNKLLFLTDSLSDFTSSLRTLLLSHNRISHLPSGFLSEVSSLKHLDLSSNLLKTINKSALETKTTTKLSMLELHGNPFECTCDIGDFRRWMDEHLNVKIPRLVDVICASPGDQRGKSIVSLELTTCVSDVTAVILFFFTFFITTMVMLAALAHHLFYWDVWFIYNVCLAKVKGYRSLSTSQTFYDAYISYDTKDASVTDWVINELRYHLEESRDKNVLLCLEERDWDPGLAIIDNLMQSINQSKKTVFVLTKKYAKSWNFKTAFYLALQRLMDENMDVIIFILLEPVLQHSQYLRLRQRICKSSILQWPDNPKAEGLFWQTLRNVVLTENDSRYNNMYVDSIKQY

Row | IC50 (human TLR8) [nM] | IC50 (human TLR9) [nM] | IC50 (human TLR7) [nM] | Compound
1 | 6.2 | 1080 | 39 | COc1ccc(-c2[nH]c3ccc(-c4nnc(C5CCCN(C)C5)o4)cc3c2C(C)C)cc1OC (stereo not drawn) [Example 46, 2-(2-(3,4-dimethoxyphenyl)-3-isopropyl-1H-indol-5-yl)-5-(1-methylpiperidin-3-yl)-1,3,4-oxadiazole]
2 | 1110 | > 50000 | 2620 | COc1ccc(-c2[nH]c3ccc(-c4cccc(C(=O)N5CCCC5C)c4)cc3c2CC(F)(F)F)cc1OC (stereo not drawn) [Example 32, (3-(2-(3,4-dimethoxyphenyl)-3-(2,2,2-trifluoroethyl)-1H-indol-5-yl)phenyl)(2-methylpyrrolidin-1-yl)methanone]
3 | 31 | 3300 | 145 | COc1ccc(-c2[nH]c3ccc(-c4cnc(N5CCN(CCC(C)O)CC5)nc4)cc3c2C(C)C)cc1OC (stereo not drawn) [Example 431, 4-(4-(5-(2-(3,4-dimethoxyphenyl)-3-isopropyl-1H-indol-5-yl)pyrimidin-2-yl)piperazin-1-yl)butan-2-ol]
4 | 2.5 | 668 | 18 | CC(C)c1c(-c2ccnc3[nH]ncc23)[nH]c2ccc(-c3nnc(C(=O)NCCN(C)C)s3)cc12 [Example 195, N-(2-(dimethylamino)ethyl)-5-(3-isopropyl-2-(1H-pyrazolo[3,4-b]pyridin-4-yl)-1H-indol-5-yl)-1,3,4-thiadiazole-2-carboxamide]
5 | 43 | 6100 | 207 | CNC(=O)CN1CCC(c2nnc(-c3ccc4[nH]c(-c5ccc(OC)c(OC)c5)c(C(C)C)c4c3)o2)CC1 [Example 23, 2-(4-(5-(2-(3,4-dimethoxyphenyl)-3-isopropyl-1H-indol-5-yl)-1,3,4-oxadiazol-2-yl)piperidin-1-yl)-N-methylacetamide]
6 | 8.8 | 128 | 14 | CNCCCNC(=O)c1coc(-c2ccc3[nH]c(-c4cc(C)nc(C)c4)c(C(C)C)c3c2)n1 [Example 279, 2-(2-(2,6-dimethylpyridin-4-yl)-3-isopropyl-1H-indol-5-yl)-N-(3-(methylamino)propyl)oxazole-4-carboxamide]
7 | 4.5 | 366 | 229 | CC(C)c1c(-c2ccnc3[nH]ncc23)[nH]c2ccc(-c3nc(C(=O)NCCN(C)C)co3)cc12 [Example 234, N-(2-(dimethylamino)ethyl)-2-(3-isopropyl-2-(1H-pyrazolo[3,4-b]pyridin-4-yl)-1H-indol-5-yl)oxazole-4-carboxamide]
8 | 129 | > 50000 | 606 | CC(C)c1c(-c2ccnc3[nH]ncc23)[nH]c2ccc(-c3ccc4ncccc4c3)cc12 [Example 469, 6-(3-isopropyl-2-(1H-pyrazolo[3,4-b]pyridin-4-yl)-1H-indol-5-yl)quinoline]
9 | 24 | 3350 | 146 | Cc1cc(-c2[nH]c3ccc(-c4cc5c(s4)CN(CC(=O)N(C)C)CC5)cc3c2C(C)C)ccn1 [Example 311, 2-(2-(3-isopropyl-2-(2-methylpyridin-4-yl)-1H-indol-5-yl)-4,7-dihydrothieno[2,3-c]pyridin-6(5H)-yl)-N,N-dimethylacetamide]
10 | 222 | > 50000 | 219 | COc1ccc(-c2[nH]c3ccc(-c4nnc(CNCCS(=O)(=O)O)o4)cc3c2C(C)C)cc1OC [Example 113, 2-(((5-(2-(3,4-dimethoxyphenyl)-3-isopropyl-1H-indol-5-yl)-1,3,4-oxadiazol-2-yl)methyl)amino)ethane-1-sulfonic acid]
11 | 5.2 | 468 | 67 | Cc1cc(-c2[nH]c3ccc(-c4nnc(CN5CCNCC5)o4)cc3c2C(C)C)ccn1 [Example 140, 2-(3-isopropyl-2-(2-methylpyridin-4-yl)-1H-indol-5-yl)-5-(piperazin-1-ylmethyl)-1,3,4-oxadiazole]
12 | 4 | 802 | 30 | COc1ccc(-c2[nH]c3ccc(-c4nnc(C(=O)NCCN(C)C)o4)cc3c2C(C)C)cc1OC [Example 90, 5-(2-(3,4-dimethoxyphenyl)-3-isopropyl-1H-indol-5-yl)-N-(2-(dimethylamino)ethyl)-1,3,4-oxadiazole-2-carboxamide]
13 | 108 | 9200 | 182 | COc1ccc(-c2[nH]c3ccc(-c4nnc(C5CCNCC5)[nH]4)cc3c2C(C)C)cc1OC [Example 124, 2-(3,4-dimethoxyphenyl)-3-isopropyl-5-(5-(piperidin-4-yl)-4H-1,2,4-triazol-3-yl)-1H-indole]
14 | 0.5 | 365 | 2.6 | Cc1cc(-c2[nH]c3ccc(-c4nc5c(s4)CNCC5)cc3c2C(C)C)cc(C)n1 [Example 308, 2-(2-(2,6-dimethylpyridin-4-yl)-3-isopropyl-1H-indol-5-yl)-4,5,6,7-tetrahydrothiazolo[5,4-c]pyridine]
15 | 201 | 3460 | 740 | CCc1c(-c2ccc(OC)c(OC)c2)[nH]c2ccc(-c3noc(CCC4CCNCC4)n3)cc12 [Example 447, 3-(2-(3,4-dimethoxyphenyl)-3-ethyl-1H-indol-5-yl)-5-(2-(piperidin-4-yl)ethyl)-1,2,4-oxadiazole]
16 | 7.5 | 367 | 39 | Cc1cc(-c2[nH]c3ccc(-c4nnc(C(=O)N5CCC(NC(C)C)CC5)o4)cc3c2C(C)C)cc(C)n1 [Example 240, (5-(2-(2,6-dimethylpyridin-4-yl)-3-isopropyl-1H-indol-5-yl)-1,3,4-oxadiazol-2-yl)(4-(isopropylamino)piperidin-1-yl)methanone]
17 | 37 | 6480 | 29 | COc1ccc(-c2[nH]c3ccc(-c4nnc(C5CCN(C(=O)CN(C)C)CC5)[nH]4)cc3c2C(C)C)cc1OC [Example 131, 1-(4-(5-(2-(3,4-dimethoxyphenyl)-3-isopropyl-1H-indol-5-yl)-4H-1,2,4-triazol-3-yl)piperidin-1-yl)-2-(dimethylamino)ethan-1-one]
18 | 17 | 6440 | 108 | COc1ccc(-c2[nH]c3ccc(-c4nnc(C5CCN(CC(=O)N(C)C)CC5)o4)cc3c2C(C)C)cc1OC [Example 17, 2-(4-(5-(2-(3,4-dimethoxyphenyl)-3-isopropyl-1H-indol-5-yl)-1,3,4-oxadiazol-2-yl)piperidin-1-yl)-N,N-dimethylacetamide]
19 | 93 | 1940 | 496 | CNCCN1CCn2nc(-c3ccc4[nH]c(-c5ccnc(C)c5)c(C(C)C)c4c3)c(C(N)=O)c2C1 [Example 218, 2-(3-isopropyl-2-(2-methylpyridin-4-yl)-1H-indol-5-yl)-5-(2-(methylamino)ethyl)-4,5,6,7-tetrahydropyrazolo[1,5-a]pyrazine-3-carboxamide]
20 | 11 | 2330 | 34 | COc1ccc(-c2[nH]c3ccc(-c4nnc(C5CCNC5)o4)cc3c2C(C)C)cc1OC (stereo not drawn) [Example 48, 2-(2-(3,4-dimethoxyphenyl)-3-isopropyl-1H-indol-5-yl)-5-(pyrrolidin-3-yl)-1,3,4-oxadiazole]
21 | 15 | 2020 | 86 | COc1ccc(-c2[nH]c3ccc(-c4nnc(C(=O)N5CCCN(C)CC5)o4)cc3c2C(C)C)cc1OC [Example 93, (5-(2-(3,4-dimethoxyphenyl)-3-isopropyl-1H-indol-5-yl)-1,3,4-oxadiazol-2-yl)(4-methyl-1,4-diazepan-1-yl)methanone]
22 | 11 | > 50000 | 4450 | CC(C)c1c(-c2ccnc3[nH]ncc23)[nH]c2ccc(-c3nc4n(n3)CCNC4)cc12 [Example 206, 2-(3-isopropyl-2-(1H-pyrazolo[3,4-b]pyridin-4-yl)-1H-indol-5-yl)-5,6,7,8-tetrahydro-[1,2,4]triazolo[1,5-a]pyrazine]
23 | 93 | 4840 | 3920 | COc1ccc(-c2[nH]c3ccc(-c4cccc(N5CCN(C(C)C)CC5)c4)cc3c2C(C)C)cc1OC [Example 370, 2-(3,4-dimethoxyphenyl)-3-isopropyl-5-(3-(4-isopropylpiperazin-1-yl)phenyl)-1H-indole]
24 | 9.1 | 48500 | 258 | Cc1cc(-c2[nH]c3ccc(-c4nnc(NC(=O)CN(C)C)o4)cc3c2C(C)C)ccn1 [Example 190, 2-(dimethylamino)-N-(5-(3-isopropyl-2-(2-methylpyridin-4-yl)-1H-indol-5-yl)-1,3,4-oxadiazol-2-yl)acetamide]
25 | 6 | 235 | 87 | CC(C)c1c(-c2ccnc3[nH]ncc23)[nH]c2ccc(-c3nnc(C(=O)NC4CCN(C(C)C)CC4)o3)cc12 [Example 84, 5-(3-isopropyl-2-(1H-pyrazolo[3,4-b]pyridin-4-yl)-1H-indol-5-yl)-N-(1-isopropylpiperidin-4-yl)-1,3,4-oxadiazole-2-carboxamide]
26 | 2.3 | 151 | 0.8 | Cc1cc(-c2[nH]c3ccc(-c4nc5c(s4)CN(C(=O)CN(C)C)CC5)cc3c2C(C)C)cc(C)n1 [Example 363, 2-(dimethylamino)-1-(2-(2-(2,6-dimethylpyridin-4-yl)-3-isopropyl-1H-indol-5-yl)-6,7-dihydrothiazolo[5,4-c]pyridin-5(4H)-yl)ethan-1-one]
27 | 7.8 | 1380 | 44 | Cc1cc(-c2[nH]c3ccc(-c4nnc(C(=O)NC5CCN(C(C)C)CC5)s4)cc3c2C(C)C)ccn1 [Example 135, 5-(3-isopropyl-2-(2-methylpyridin-4-yl)-1H-indol-5-yl)-N-(1-isopropylpiperidin-4-yl)-1,3,4-thiadiazole-2-carboxamide]

Source: patent US11420958B2, “Aryl and heteroaryl substituted indole compounds” (BRISTOL-MYERS SQUIBB COMPANY, priority 2017, dated 2022)
